Source: US9822157B2 (priority 2013, dated 2017)
Where two headings read alike, the source gives them in different places.

How the values were obtained:
human ferroportin = target: T1, human ferroportin (Homo sapiens, UniProt Q9NP59); assay type: cell-based
T1 sequence (Q9NP59 1-571): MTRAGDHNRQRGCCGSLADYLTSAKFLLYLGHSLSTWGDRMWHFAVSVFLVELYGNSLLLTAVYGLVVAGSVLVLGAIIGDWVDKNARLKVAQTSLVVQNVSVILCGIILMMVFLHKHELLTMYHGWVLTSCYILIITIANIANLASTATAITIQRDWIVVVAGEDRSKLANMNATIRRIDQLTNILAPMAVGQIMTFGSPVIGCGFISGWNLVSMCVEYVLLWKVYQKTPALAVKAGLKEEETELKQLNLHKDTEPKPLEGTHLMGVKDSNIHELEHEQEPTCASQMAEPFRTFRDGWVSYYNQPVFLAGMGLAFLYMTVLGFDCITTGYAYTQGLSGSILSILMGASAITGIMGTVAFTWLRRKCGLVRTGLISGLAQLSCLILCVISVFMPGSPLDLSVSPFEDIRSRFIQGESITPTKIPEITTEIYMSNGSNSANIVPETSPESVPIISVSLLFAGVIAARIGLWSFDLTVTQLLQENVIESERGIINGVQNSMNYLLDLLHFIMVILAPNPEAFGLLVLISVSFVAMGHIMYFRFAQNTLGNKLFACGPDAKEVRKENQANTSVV
Description: The cDNA encoding the human ferroportin (SLC40A1) was cloned from a cDNA clone from Origene (NM_014585). The DNA encoding the ferroportin was amplified by PCR using primers also encoding terminal restriction sites for subcloning, but without the termination codon. The ferroportin receptor was subcloned into a mammalian GFP expression vector containing a neomycin (G418) resistance marker in such that the reading frame of the ferroportin was fused in frame with the GFP protein. The fidelity of the DNA encoding the protein was confirmed by DNA sequencing. HEK293 cells were used for transfection of the ferroportin-GFP receptor expression plasmid. The cells were grown according to standard protocol in growth medium and transfected with the plasmids using Lipofectamine (manufacturer's protocol, Invitrogen). […] The cells were propagated and frozen in aliquots.
A retro inverse peptide is a peptide with a reversed sequence in all D amino acids. […] The EC50 of these reference compounds for ferroportin degradation was determined according to the activity assay described above.

[1] = Stability in human serum (LC-MS); assay type: in vitro ADME; details: 10 μM peptide, 37 degrees C, up to 24 hours
Protocol: Serum stability experiments were undertaken to complement the in vivo results and assist in the design of potent, stable Ferroportin agonists. In order to predict the stability in humans, ex vivo stability studies were initially performed in human serum.
Samples were taken at various time points up to 24 hours. The samples were separated from serum proteins and analysed for the presence of the peptide of interest using LC-MS. The amount of intact peptide in each sample was calculated using the analyte peak area in relation to the zero time point.
(§1) The peptides were also tested for other pharmacokinetic/pharmacodynamic (PK/PD) parameters using methods commonly know by the skilled artisan. These parameters included determinations regarding stability (hours stable in plasma from the indicated human or rat subject), half-life in mice, and in vitro activity (EC50), tested as described in Example 2.

serum iron [2] = assay: Reduction of free plasma iron in rats (serum iron after i.p. dosing); assay type: in vivo, Sprague-Dawley rats; details: IP dosing, FIGS. 2 and 3
Protocol: At Day 1, the animals were monitored for free Fe^2+ in serum. In order to reach a homogenous serum level, Fe^2+ was analyzed and a homogenous cohort of 7 or 8 animals randomized to each treatment group. At Day 2, an acute experiment where the animals were subjected to i.p. dosing of test compound and subsequent tail vein blood samples. Prior to dosing, the animals were put under a heating lamp for 3-5 minutes. Blood samples were drawn from the tail vein from all animals in order to determine serum iron levels prior to vehicle or compound dosing. Animals were dosed i.p. with 1 ml of test substance in vehicle or just vehicle and blood samples of 250 μl was drawn from each animal at t=0, 60, 120, 240, 360 min and 24 hours in the study of the reference compound. The dose response study performed with Retro Inverse (RI) mini-Hepcidin (Reference compound), and the efficacy study performed with Compound No. 2 were performed as two separate experiments. […]
Male Sprague-Dawley rats weighing 200-250 g were used in the study. […] Humane endpoints were applied, according to OECD's “Guidelines for Endpoints in Animal Study Proposals.” The animals were monitored daily.
Iron content in plasma/serum is measured for iron content using a colorimetric assay on the Cobas c 111 according to instructions from the manufacturer of the assay (assay: IRON2: ACN 661). […]

serum iron [3] = assay: In vivo serum iron reduction in mice; set-up: species or system mice (C57-BL6); details: s.c., tested in rats or in mice
Protocol: Instead of rats, mice (C57-BL6) were tested.
A similar experiment was performed with lower doses to assess the dose response of these compounds for inducing serum iron reduction. Methods were as described above in this Example, except for the following parameters: n=4 mice/group, however n=8 for the vehicle, as two groups were pooled. Mice were administered test compounds at two separate dosages (300 nmol/kg or 1000 nmol/kg), via subcutaneous injection. Serum iron levels were assessed as in Example 8 two hours after peptide or vehicle injection. […] Moreover, it was clear that several of the compounds were able to induce maximum effects at dosages as low as 300 nmol/kg.
The route of peptide administration was via subcutaneous injection, unless otherwise indicated as having been via intraperitoneal injection (this is noted on the table by “i.p.” in parentheses following the “yes” or “no” determination).
as §1

serum iron [4] = assay: In vivo serum iron reduction in mice; set-up: species or system mice (C57-BL6); details: C57BL6 mice, time course, FIG. 6
[5] = Hepcidin analog peptides, read-out: Potency EC50
[6] = read-out: EC50 (nM) (n > 3), alanine scan of Compound 18

| Substance | EC50 (human ferroportin; [5]) | EC50 (human ferroportin; [6]) | t½ [1] | serum iron level (serum iron [2]) | In Vivo Activity (s.c.) 300 nmol/kg (serum iron [3]) | serum iron, PK/PD effects (serum iron [4]) | In Vivo Activity (s.c.) 1000 nmol/kg (serum iron [3]) |
| --- | --- | --- | --- | --- | --- | --- | --- |
| H-DTHFPICIFGPRSKGWACM-NH2 (cysteine pairing not given here) [Compound 47] | 313 nM | 313 nM | ~40 h | – | – | – | – |
| H-DTHFPICIFGPRSKGWVCM-NH2 (cysteine pairing not given here) [Compound 18] | 125 nM | 125 nM | 2.32 h | – | – | – | – |
| Hy-DPhe-DIle-DCys-DIle-DPro-DPhe-DHis-DThr-DAsp-NH2 [RI-Mini Hepcidin, reference compound] | – | – | – | in neither case significant | – | – | – |
| Isovaleric acid-DTHFPCIKFEPRSKGWVCK-NH2 [Compound 181] | – | – | – | – | Yes | a rapid decrease in serum iron, which was transient | – |
| Isovaleric acid-DTHFPCIKFGPRSKGWVC-K(PEG8)-NH2 [Compound 153] | – | – | – | – | Yes | sustained | Yes |
| Isovaleric acid-DTHFPICIFGPRSKGWVC-NH2 [Compound 2] | – | – | – | a decrease in serum iron level that was comparable to that observed after injection of the positive control | Yes | – | Yes |
